IC50 and Activity data for 9 molecules are collected here from ChEMBL document CHEMBL1151873, “Protein tyrosine phosphatase 1B inhibitory effects of depsidone and pseudodepsidone metabolites from the Antarctic lichen Stereocaulon alpinum” (Bioorg Med Chem Lett, 2009).

Experiment [1] concerns the target T1, Tyrosine-protein phosphatase non-receptor type 1 (Homo sapiens, UniProt P18031).
T1 sequence (P18031 whole entry): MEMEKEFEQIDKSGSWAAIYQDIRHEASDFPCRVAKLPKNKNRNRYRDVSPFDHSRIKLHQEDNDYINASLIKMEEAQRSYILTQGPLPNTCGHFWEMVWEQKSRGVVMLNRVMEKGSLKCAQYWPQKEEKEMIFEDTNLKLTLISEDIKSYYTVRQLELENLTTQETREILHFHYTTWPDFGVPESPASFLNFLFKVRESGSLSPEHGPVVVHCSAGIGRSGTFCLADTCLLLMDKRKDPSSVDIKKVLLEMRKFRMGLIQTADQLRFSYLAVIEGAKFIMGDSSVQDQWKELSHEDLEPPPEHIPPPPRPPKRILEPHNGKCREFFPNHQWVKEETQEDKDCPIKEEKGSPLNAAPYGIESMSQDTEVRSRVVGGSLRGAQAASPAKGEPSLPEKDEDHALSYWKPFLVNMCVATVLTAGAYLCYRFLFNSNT
As to the kind of experiment: (§1) Inhibition of PTP1B.

For experiment [2], the target named is T2, Tyrosine-protein phosphatase non-receptor type 1 (Homo sapiens) (UniProt P18031).
T2 sequence (whole entry): T1 sequence (P18031 whole entry)
The experiment is described as §1.

Experiment [3] addresses T2, Tyrosine-protein phosphatase non-receptor type 1 (Homo sapiens). As to the kind of experiment: Non competitive inhibition of PTP1B assessed as inhibition of substrate catalysis by Lineweaver-Burke plot.

Molecules are shown by their SMILES. The source made the active and inactive calls. The rule behind the calls is not given here. Some results are limits rather than exact numbers.

The IC50 is the concentration needed to halve the response being measured. Read a low IC50 as greater potency. With `COC(=O)c1c(C)cc(O)cc1O` [METHYL ORSELLINATE], the IC50 in experiment [1] is more than 200 µM.
The molecule `COC(=O)c1c(C)cc(OC(=O)c2c(C)cc(O)c(C=O)c2O)c(C)c1O` [ATRANORIN] displayed an IC50 in experiment [1] of 63.5 µM.
Same read-out and setting: for `COc1cc(O)c(C(C)=O)c(O)c1C` the value was more than 200 µM; for `CCCCCc1c2c(cc(O)c1C(=O)OC)OC(=O)c1c(cc(OC)cc1C(=O)CCCC)O2`, 3.02 µM.
In the case of `CCCCCc1c(Oc2cc(OC)cc3c2C(=O)OC3(CCCC)OC)c(O)cc(O)c1C(=O)O` (stereo not drawn), in experiment [2], the Activity entry is “Dose-dependent effect”. This molecule also came in with an IC50 in experiment [1] of 2.48 µM.
For `CCCCCc1c2c(cc(OC)c1C(=O)OC)OC(=O)c1c(cc(OC)cc1C(=O)CCCC)O2`, the IC50 in experiment [1] turned out to be 7.42 µM.
With `CCCCCc1cc(O)cc(O)c1Oc1cc(OC)cc2c1C(=O)OC2(CCCC)OC` (stereo not drawn), in experiment [3], the result was Active. Also, the Activity result in experiment [2] was “Dose-dependent effect”. The same molecule had an IC50 in experiment [1] of 6.86 µM.
In the case of `COC(=O)c1c(C)cc(O)c(C=O)c1O` [METHYL HAEMATOMMATE], the IC50 in experiment [1] was more than 200 µM.
In the case of `CCCCCc1c2c(cc(O)c1C(=O)O)OC(=O)c1c(cc(OC)cc1C(=O)CCCC)O2`, the result in experiment [3] was Active. Besides, the Activity result in experiment [2] is “Dose-dependent effect”.
